In US20230330093A1, “APPLICATION OF NITROGEN-CONTAINING SATURATED HETEROCYCLIC COMPOUND” (SHANGHAI PHARMACEUTICALS HOLDING CO., LTD., priority 2020, published 2023):
Values joined by “and” are separate entries in the source; they are usually repeats but may differ in a detail not shown here. Identical values can stand only once.

Experiments:
[1] = system: rhesus monkeys with spontaneous chronic kidney disease; experiment: Effect on cystatin C (CysC), 8-week administration; assay type: in vivo, Macaca mulatta (Rhesus Macaque)
Method: In the trial, animals were brought in three stages. […] Glomerular filtration rate […]: creatinine (Cr-P), urea nitrogen (BUN) and cystatin (CysC) were detected, and the eGFR value was obtained by calculation. It was performed once before the administration and once every two weeks after the administration. […] ELISA kit was used for NT-proBNP test. [table]

[2] = system: rhesus monkeys with spontaneous chronic kidney disease; experiment: Effect on blood pressure (SBP, DBP, MBP, HR) after anesthesia, 8-week administration; assay type: in vivo, Macaca mulatta (Rhesus Macaque); settings: for DBP reduced by on average, compared with the baseline / SBP reduced by on average, compared with the baseline: after W8 administration
Description: In the trial, animals were brought in three stages.
Route of administration: Oral administration.
After anesthesia, the animal was placed in a supine position. The left upper arm was shaved clean, and a suitable size cuff was tied according to the standard. The blood oxygen probe was clamped on the animal's finger or toe (except for the left hand), and the red light-sensitive surface was on the side of the finger pad. The blood pressure of the animal was continuously measured for 3 times in the automatic mode with an interval of 1 min. If the difference of DBP, SBP and MBP of blood pressure measured more than three times was not significant (the difference between the highest value and the lowest value was less than 15 mmHg), the measurement was completed.
Testing equipment: GE B40i electrophysiological monitor.
See Table 16 for the effects of administration of each administration group on blood pressure. The blood pressure test of primates required anesthesia, so it was necessary to control the variability of heart rate at various time points to make statistics.

[3] = 1 mg/kg qd (n = 5), 4 weeks, mean
[4] = 1 mg/kg qd (n = 5), 8 weeks, mean
[5] = 1 mg/kg qd (n=5), p<0.05 vs placebo
[6] = 2 mg/kg qd (n = 5), 4 weeks, mean
[7] = 2 mg/kg qd (n = 5), 8 weeks, mean
[8] = 2 mg/kg qd (n=5), P<0.01 vs placebo

With `COC(=O)NCCCn1nc([C@@H](C)N(C(=O)[C@H]2CNCCO2)C2CC2)c2ccc(C)nc21.O=C(O)C[C@H](O)C(=O)O` [malate of compound of Formula I] the CysC ([1]; 1 mg/kg (n = 5), 2 weeks) was 1.66 mg/L and 1.64 mg/L and 1.83 mg/L and 1.55 mg/L, the CysC ([1]; 1 mg/kg (n = 5), 2 weeks, mean) was 1.70 ± 0.12 mg/L and the CysC ([1]; 1 mg/kg (n = 5), 4 weeks) was 1.49 mg/L and 1.43 mg/L and 1.57 mg/L and 1.76 mg/L and 1.50 mg/L. The CysC ([1]; 1 mg/kg (n = 5), 4 weeks, mean) was 1.55 ± 0.13 mg/L, the CysC ([1]; 1 mg/kg (n = 5), 6 weeks) was 1.48 mg/L and 1.61 mg/L and 1.62 mg/L and 1.68 mg/L and 1.50 mg/L and the CysC ([1]; 1 mg/kg (n = 5), 6 weeks, mean) was 1.58 ± 0.08 mg/L. For the same compound, the CysC ([1]; 1 mg/kg (n = 5), 8 weeks) was 1.51 mg/L and 1.59 mg/L and 1.62 mg/L and 1.77 mg/L, the CysC ([1]; 1 mg/kg (n = 5), 8 weeks, mean) was 1.60 ± 0.11 mg/L and the CysC ([1]; 1 mg/kg (n = 5), Baseline, single animals and Mean ± SD) was 1.67 mg/L and 1.80 mg/L and 1.72 mg/L and 1.84 mg/L and 1.75 mg/L. The CysC ([1]; 1 mg/kg (n = 5), Baseline, single animals and Mean ± SD, mean) was 1.76 ± 0.07 mg/L, the CysC ([1]; 2 mg/kg (n = 5), 2 weeks) was 1.44 mg/L and 1.97 mg/L and 1.71 mg/L and 1.73 mg/L and 1.51 mg/L and the CysC ([1]; 2 mg/kg (n = 5), 2 weeks, mean) was 1.67 ± 0.21 mg/L. For the same compound, the CysC ([1]; 2 mg/kg (n = 5), 4 weeks) was 1.31 mg/L and 1.77 mg/L and 1.56 mg/L and 1.43 mg/L and 1.47 mg/L, the CysC ([1]; 2 mg/kg (n = 5), 4 weeks, mean) was 1.51 ± 0.17 mg/L and the CysC ([1]; 2 mg/kg (n = 5), 6 weeks) was 1.39 mg/L and 1.76 mg/L and 1.65 mg/L and 1.54 mg/L and 1.42 mg/L. The CysC ([1]; 2 mg/kg (n = 5), 6 weeks, mean) was 1.55 ± 0.16 mg/L, the CysC ([1]; 2 mg/kg (n = 5), 8 weeks) was 1.36 mg/L and 1.68 mg/L and 1.58 mg/L and 1.55 mg/L and 1.47 mg/L and the CysC ([1]; 2 mg/kg (n = 5), 8 weeks, mean) was 1.53 ± 0.12 mg/L. The CysC ([1]; 2 mg/kg (n = 5), Baseline, single animals and Mean ± SD) was 1.57 mg/L and 1.87 mg/L and 1.72 mg/L and 1.69 mg/L and 1.56 mg/L, the CysC ([1]; 2 mg/kg (n = 5), Baseline, single animals and Mean ± SD, mean) was 1.68 ± 0.13 mg/L and the CysC ([1]; 5 mg/kg (n = 6), 2 weeks) was 1.63 mg/L and 1.45 mg/L and 2.63 mg/L and 1.46 mg/L and 1.64 mg/L. The CysC ([1]; 5 mg/kg (n = 6), 2 weeks, mean) was 1.74 ± 0.44 mg/L, the CysC ([1]; 5 mg/kg (n = 6), 4 weeks) was 1.68 mg/L and 1.73 mg/L and 1.64 mg/L and 2.41 mg/L and 1.36 mg/L and 1.44 mg/L and the CysC ([1]; 5 mg/kg (n = 6), 4 weeks, mean) was 1.71 ± 0.37 mg/L. The CysC ([1]; 5 mg/kg (n = 6), 6 weeks) was 1.59 mg/L and 1.47 mg/L and 1.80 mg/L and 2.45 mg/L and 1.40 mg/L and 1.46 mg/L, the CysC ([1]; 5 mg/kg (n = 6), 6 weeks, mean) was 1.70 ± 0.40 mg/L and the CysC ([1]; 5 mg/kg (n = 6), 8 weeks) was 1.46 mg/L and 1.69 mg/L and 1.66 mg/L and 2.29 mg/L and 1.50 mg/L and 1.39 mg/L. The CysC ([1]; 5 mg/kg (n = 6), 8 weeks, mean) was 1.67 ± 0.33 mg/L, the CysC ([1]; 5 mg/kg (n = 6), Baseline, single animals and Mean ± SD) was 1.49 mg/L and 1.63 mg/L and 1.61 mg/L and 2.52 mg/L and 1.47 mg/L and 1.55 mg/L and the CysC ([1]; 5 mg/kg (n = 6), Baseline, single animals and Mean ± SD, mean) was 1.71 ± 0.40 mg/L. The DBP ([2]; 1 mg/kg qd (n = 5), 4 weeks) was 51 mmHg and 54 mmHg and 65 mmHg, the SBP ([2]; 1 mg/kg qd (n = 5), 4 weeks) was 104 mmHg and 109 mmHg and 124 mmHg and the DBP [2, 3] was 61 ± 12 mmHg. The SBP [2, 3] was 118 ± 17 mmHg, the DBP ([2]; 1 mg/kg qd (n = 5), 8 weeks) was 53 mmHg and 49 mmHg and the SBP ([2]; 1 mg/kg qd (n = 5), 8 weeks) was 94 mmHg and 89 mmHg and 114 mmHg. The DBP [2, 4] was 60 ± 12 mmHg, the SBP [2, 4] was 111 ± 20 mmHg and the DBP ([2]; 1 mg/kg qd (n = 5), Baseline) was 54 mmHg and 56 mmHg and 60 mmHg and 59 mmHg and 70 mmHg. The DBP ([2]; 1 mg/kg qd (n = 5), Baseline, mean) was 60 ± 6 mmHg, the SBP ([2]; 1 mg/kg qd (n = 5), Baseline, single animals and Mean ± SD) was 101 mmHg and 105 mmHg and 125 mmHg and 121 mmHg and 129 mmHg and the SBP ([2]; 1 mg/kg qd (n = 5), Baseline, single animals and Mean ± SD, mean) was 116 ± 13 mmHg. For the same compound, the “DBP reduced by on average, compared with the baseline” value [2, 5] was 5±4 mmHg, the “SBP reduced by on average, compared with the baseline” value [2, 5] was 11±4 mmHg and the DBP ([2]; 2 mg/kg qd (n = 5), 4 weeks) was 55 mmHg and 83 mmHg and 66 mmHg. The SBP ([2]; 2 mg/kg qd (n = 5), 4 weeks) was 110 mmHg and 163 mmHg and 138 mmHg, the DBP [2, 6] was 71 ± 11 mmHg and the SBP [2, 6] was 140 ± 20 mmHg. For the same compound, the DBP ([2]; 2 mg/kg qd (n = 5), 8 weeks) was 52 mmHg and 70 mmHg and 62 mmHg and 73 mmHg, the SBP ([2]; 2 mg/kg qd (n = 5), 8 weeks) was 102 mmHg and 160 mmHg and 121 mmHg and 133 mmHg and the DBP [2, 7] was 64 ± 8 mmHg. The SBP [2, 7] was 128 ± 21 mmHg, the DBP ([2]; 2 mg/kg qd (n = 5), Baseline) was 58 mmHg and 56 mmHg and 78 mmHg and 83 mmHg and 74 mmHg and the DBP ([2]; 2 mg/kg qd (n = 5), Baseline, mean) was 70 ± 12 mmHg. For the same compound, the SBP ([2]; 2 mg/kg qd (n = 5), Baseline, single animals and Mean ± SD) was 126 mmHg and 111 mmHg and 184 mmHg and 143 mmHg and 137 mmHg, the SBP ([2]; 2 mg/kg qd (n = 5), Baseline, single animals and Mean ± SD, mean) was 140 ± 27 mmHg and the “DBP reduced by on average, compared with the baseline” value [2, 8] was 9±8 mmHg. The “SBP reduced by on average, compared with the baseline” value [2, 8] was 19±9 mmHg.
